Drawing on patent US20170280720A1, “ARGININE […] INHIBITORS AND USES THEREOF” (EPIZYME, INC., priority 2014, published 2017), this text covers IC50 for 62 molecules.

The target of this assay is T1, Human CARM1 (PRMT4) (Homo sapiens, UniProt Q86X55).
T1 construct: Flag-CARM1-His; made in house; host or cells: HEK 293F cells (BacMam baculovirus, pFastBacMam)
T1 sequence (Q86X55 2-585 isoform Q86X55-1): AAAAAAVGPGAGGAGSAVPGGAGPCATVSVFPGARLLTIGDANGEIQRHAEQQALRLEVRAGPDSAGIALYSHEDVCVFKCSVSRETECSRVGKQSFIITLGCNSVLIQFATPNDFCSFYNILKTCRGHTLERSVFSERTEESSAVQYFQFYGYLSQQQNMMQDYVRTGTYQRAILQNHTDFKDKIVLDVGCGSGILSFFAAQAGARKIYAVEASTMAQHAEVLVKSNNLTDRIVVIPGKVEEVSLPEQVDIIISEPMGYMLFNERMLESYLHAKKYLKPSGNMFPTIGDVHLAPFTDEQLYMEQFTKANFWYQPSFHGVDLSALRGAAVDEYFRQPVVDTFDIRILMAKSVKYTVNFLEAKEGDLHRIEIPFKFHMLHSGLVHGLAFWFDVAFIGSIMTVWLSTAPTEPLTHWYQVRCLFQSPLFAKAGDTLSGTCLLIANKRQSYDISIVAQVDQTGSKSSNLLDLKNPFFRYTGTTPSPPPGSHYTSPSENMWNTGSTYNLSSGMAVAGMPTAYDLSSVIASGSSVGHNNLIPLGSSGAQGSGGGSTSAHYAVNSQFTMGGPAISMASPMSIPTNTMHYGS
Put plainly: CARM1 biochemical assay (3H-SAM Flashplate, peptide substrate). The conditions noted are these: read-out: CARM1_ IC50. Put shortly: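 FLAG/His-tagged human CARM1 (isoform 1, Δ539-561, baculovirus-expressed), 0.25 nM, preincubated 30 min at room temperature with compound (2% DMSO) in 20 mM Bicine pH 7.6, then reacted with 30 nM 3H-SAM and 250 nM biotinylated H3 16-30 peptide (R26 monomethyl). Stopped with 300 uM cold SAM; labelled peptide captured on streptavidin Flashplate; % inhibition versus DMSO and 1 mM SAH controls fitted to a 4- or 3-parameter curve.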

pIC50: −log10 of the molar value.

Take `Cc1c(CNc2nc(-c3cccc(CN(C)CCN)c3)nc3c2cnn3C2CC2)cnn1C` [Compound 52]: the negative logarithm of the IC50 (pIC50) (commonly the IC50 on a negative log10 scale, so that one unit is a factor of ten) was 8.39.
The result for `COc1cccc(-n2cnc3ccc(-c4ccc(CNCCN)cc4)cc32)c1` [Compound 110] reads 4.97.
In the case of `CC(C)n1ncc2c(NC(=O)OCc3ccccc3)cc(-c3cccc(CN(C)CCN)c3)nc21` [Compound 84] it was 7.86; in that of `CNCCN(C)Cc1cccc(-c2nc(NC3CC3)c3cnn(C4CC4)c3n2)c1` [Compound 114], 7.75.
In the case of `CCOC(=O)c1cc(-c2cccc(CN(C)CCNC)c2)nc2c1cnn2C(C)C` [Compound 78] it was 7.75; in that of `CN(CCN)Cc1cccc(-c2nc(NCc3cn4ccsc4n3)c3cnn(C4CC4)c3n2)c1` [Compound 5], 8.49.
Take `CCNc1cc(-c2cccc(CN(C)CCNC)c2)nc2c1cnn2C(C)C` [Compound 72]: the pIC50 is 6.96.
Take `CNCCN(C)Cc1cccc(-c2ccc3ncn(C)c3c2)c1` [Compound 92]: the pIC50 is 5.19.
As for `CC(C)n1ncc2c(C(=O)N[C@@H](C)c3ccccc3)cc(-c3cccc(CNCCN)c3)cc21` [Compound 125], the pIC50 was 7.12.
In the case of `CNCCN(C)Cc1cccc(-c2cc(N3CCC3)c3cnn(C(C)C)c3n2)c1` [Compound 79] it was 7.84; in that of `CNCCN(C)Cc1cccc(-c2cc(NC)c3cnn(C(C)C)c3n2)c1` [Compound 121], 7.15; in that of `CNCCN(C)Cc1cccc(-c2cc(C#N)c3cnn(C(C)C)c3n2)c1` [Compound 74], 7.42.
In the case of `CNCCN(C)Cc1cccc(-c2cc(N(C)C3CC3)c3cnn(C(C)C)c3n2)c1` [Compound 95] it was 7.44; in that of `CNCCN(C)Cc1cccc(-c2cc(N3CCCC(C#N)C3)c3cnn(C(C)C)c3n2)c1` (centres unmarked) [Compound 55], 7.45; in that of `CNCCN(C)Cc1cccc(-c2cc(C(=O)N3CCCCC3)c3cnn(C(C)C)c3n2)c1` [Compound 56], 6.66.
The result for `CC(C)n1ncc2c(C(=O)NCC3CCOCC3)cc(-c3cccc(CN(C)CCN)c3)nc21` [Compound 108] reads 7.98.
As for `CNCCN(C)Cc1cccc(-c2nc(N3CCOCC3)c3cnn(C(C)C)c3n2)c1` [Compound 99], the pIC50 is 7.95.
The result for `CNCCN(C)Cc1cccc(-c2cc(NC(=O)NC(C)C)c3cnn(C(C)C)c3n2)c1` [Compound 85] reads 7.85; that for `CC(C)n1ncc2c(NC3CCOCC3)cc(-c3cccc(CN(C)CCN)c3)nc21` [Compound 101], 8.29.
The result for `Cc1cccc(-n2cnc3ccc(-c4ccc(CNCCN)cc4)cc32)c1` [Compound 106] reads 4.83.
Take `CNCCN(C)Cc1cccc(-c2cc(C(=O)NCCC(=O)NCC3CCOCC3)c3cnn(C(C)C)c3n2)c1` [Compound 64]: the pIC50 is 7.60.
With `NCCNCc1ccc(-c2ccc3ncn(CC4CCNCC4)c3c2)cc1` [Compound 70], the pIC50 is 4.93.
The result for `CNCCN(C)Cc1cccc(-c2cc(OC)c3cnn(C(C)C)c3n2)c1` [Compound 124] reads 7.12; that for `CNCCN(C)Cc1cccc(-c2ccc3nc[nH]c3c2)c1` [Compound 75], 5.00.
The result for `CCOc1cc(-c2cccc(CN(C)CCNC)c2)nc2c1cnn2C(C)C` [Compound 53] reads 7.70.
In the case of `CNCCN(C)Cc1cccc(-c2cc(OC3CCOC3)c3cnn(C(C)C)c3n2)c1` (centres unmarked) [Compound 102] it was 7.65; in that of `CN(CCN)Cc1cccc(-c2nc(NCc3ccncc3)c3cnn(C4CC4)c3n2)c1` [Compound 66], 8.20.
For the molecule `CNCCN(C)Cc1cccc(-c2cc(C(=O)NCCC(=O)NCc3ccn(C)n3)c3cnn(C(C)C)c3n2)c1` [Compound 83], the pIC50 is 7.59.
For `CNCCN(C)Cc1cccc(-c2nc(NCc3cn4ccsc4n3)c3cnn(C4CC4)c3n2)c1` [Compound 6], the pIC50 was 7.62.
The result for `Cc1ccccc1Cn1cnc2ccc(-c3ccc(CNCCN)cc3)cc21` [Compound 82] reads 5.09; that for `CNCCN(C)Cc1cccc(-c2nc(NCc3cnn(C)c3C)c3cnn(C4CC4)c3n2)c1` [Compound 57], 7.73.
Consider `COc1ccccc1Cn1cnc2ccc(-c3ccc(CNCCN)cc3)cc21` [Compound 80], for which the pIC50 is 5.32.
`CNCCN(C)Cc1cccc(-c2nc(NCc3ccncc3)c3cnn(C4CC4)c3n2)c1` [Compound 69]: the pIC50 was 7.71.
In the case of `CN(CCN)Cc1cccc(-c2nc(NC3CC3)c3cnn(C4CC4)c3n2)c1` [Compound 96] it was 8.07; in that of `Cc1ccc(Cn2cnc3ccc(-c4ccc(CNCCN)cc4)cc32)cc1` [Compound 97], 5.09.
The result for `CC(C)NC(=O)Nc1cc(-c2cccc(CN(C)CCN)c2)nc2c1cnn2C(C)C` [Compound 86] reads 8.09; that for `CNCCN(C)Cc1cccc(-c2cc(C(=O)NCc3ccccn3)c3cnn(C(C)C)c3n2)c1` [Compound 98], 7.49.
The result for `CNCCN(C)Cc1cccc(-c2cc(-c3cnn(C)c3)c3cnn(C(C)C)c3n2)c1` [Compound 49, N1-(3-(1-isopropyl-4-(1-methyl-1H-pyrazol-4-yl)-1H-pyrazolo[3,4-b]pyridin-6-yl)benzyl)-N1,N2-dimethylethane-1,2-diamine] reads 7.91; that for `CNCCN(C)Cc1cccc(-c2cc(N3CCC(C(F)(F)F)CC3)c3cnn(C(C)C)c3n2)c1` [Compound 50], 7.56.
As for `CC(C)n1ncc2c(NS(=O)(=O)N(C)C)cc(-c3cccc(CN(C)CCN)c3)nc21` [Compound 107], the pIC50 is 7.59.
The result for `CNCCN(C)Cc1cccc(-c2cc(C(=O)NC3CCOCC3)c3cnn(C4CC4)c3n2)c1` [Compound 87] reads 7.43; that for `Cc1c(C(=O)NCc2ccccc2)cc(-c2ccc(CN(C)CCN)cc2)c2cn[nH]c12` [Compound 7], 5.17.
The result for `CC(C)n1ncc2c(NC(=O)N(C)C)cc(-c3cccc(CN(C)CCN)c3)nc21` [Compound 116] reads 7.63; that for `CNCCN(C)Cc1cccc(-c2cc(C(=O)NCCCCC(=O)NCC3CCOCC3)c3cnn(C(C)C)c3n2)c1` [Compound 118], 7.75; that for `CNCCN(C)Cc1cccc(-c2nc(NCc3cccnc3)c3cnn(C4CC4)c3n2)c1` [Compound 63], 7.77.
In the case of `CNCCN(C)Cc1cccc(-c2cc(N3CCC(C#N)CC3)c3cnn(C(C)C)c3n2)c1` [Compound 93] it was 7.98; in that of `CNCCN(C)Cc1cccc(-c2ccc3cnn(C(C)C)c3n2)c1` [Compound 73], 6.42; in that of `CNCCN(C)Cc1cccc(-c2cc(C(=O)NCCCC(=O)NCC3CCOCC3)c3cnn(C(C)C)c3n2)c1` [Compound 60], 7.76.
`CNCCN(C)Cc1cccc(-c2cc(C(=O)NCCCCCC(=O)NCc3ccn(C)n3)c3cnn(C(C)C)c3n2)c1` [Compound 117]: the pIC50 was 7.48.
In the case of `NCCNCc1ccc(-c2ccc3ncn(Cc4ccc(C(=O)N5CCCC5)cc4)c3c2)cc1` [Compound 104] it was 5.39; in that of `CNCCN(C)Cc1cccc(-c2cc(C(=O)NCC3CCOCC3)c3cnn(C(C)C)c3n2)c1` [Compound 105], 7.74; in that of `CC(C)n1ncc2c(C(=O)N(C)[C@@H](C)c3ccccc3)cc(-c3cccc(CN(C)CCN)c3)cc21` [Compound 3], 7.34.
In the case of `CC(C)n1ncc2c(C(=O)NCc3ccccc3Cl)cc(-c3cccc(CN(C)CCN)c3)nc21` [Compound 54] it was 7.58.
In the case of `CC(C)n1cc2c(Cl)cc(-c3cccc(CN(C)CCN)c3)nc2n1` [Compound 59] it was 6.15; in that of `CNCCN(C)Cc1cccc(-c2cc(N3CCC(OC)CC3)c3cnn(C(C)C)c3n2)c1` [Compound 51], 7.78; in that of `CNCCN(C)Cc1cccc(-c2cc(C(=O)NCCCC(=O)NCc3ccn(C)n3)c3cnn(C(C)C)c3n2)c1` [Compound 88], 7.78.
Take `COc1ccccc1-c1nc2ccc(-c3ccc(CNCCN)cc3)cc2[nH]1` [Compound 115]: the negative logarithm of the IC50 (pIC50) was 5.16.
The result for `COc1cccc(Cn2cnc3ccc(-c4ccc(CN(C)CCN)cc4)cc32)c1` [Compound 8] reads 5.41; that for `CC(C)n1ncc2c(C(=O)NCc3ccccc3F)cc(-c3cccc(CN(C)CCN)c3)nc21` [Compound 65], 8.08.
In the case of `CNCCN(C)Cc1cccc(-c2cc(NC(=O)N(C)C)c3cnn(C(C)C)c3n2)c1` [Compound 123] it was 7.53.
The result for `CNCCN(C)Cc1cccc(-c2nc(N(C)C3CCOCC3)c3cnn(C4CC4)c3n2)c1` [Compound 109, N1-(3-(1-cyclopropyl-4-(methyl(tetrahydro-2H-pyran-4-yl)amino)-1H-pyrazolo[3,4-d]pyrimidin-6-yl)benzyl)-N1,N2-dimethylethane-1,2-diamine] reads 8.30; that for `COC(=O)Nc1cc(-c2cccc(CN(C)CCN)c2)nc2c1cnn2C(C)C` [Compound 71], 7.97.
